Active and inactive are the calls of the source. How the calls were made is not given here.
Tested on: INS-1E Gaussia luciferase insulin secretion, no glucose, luminescence
Assay: glucose-independent GLuc insulin release activation – cell-based, INS-1E, Gaussia luciferase, luminescence, cherry-pick, counter-screen for glucose-dependent insulin secretion activators, dose response (AID 977606)

`CCCCc1c(-c2ccccc2F)ncn1CCc1ccccc1OC` and `CCCCc1c(-c2ccccc2OC)ncn1Cc1ccccc1C` are within 1.5-fold of each other in AC40: 9.38 µM for the first, 11.3 µM for the second.

First: Cc1cccc(S(=O)(=O)N2C[C@@H]3N[C@H](C2)C3c2ccc(-c3ccccc3F)cc2)c1 (stereo partly drawn)
Second: Fc1ccccc1-c1ccc(C2[C@@H]3CN(Cc4ccccc4)C[C@H]2N3)cc1 (stereo partly drawn)
The AC40 of the first is 2.5-fold lower: 2.91 µM for the first, 7.19 µM for the second.

First: COc1cc2nc(N3CCN(c4cc(C)ccc4C)CC3)nc(N)c2cc1OC
Second: COc1ccc(N2CCN(c3ccc(NC(=O)C4CCCCC4)cc3C#N)CC2)cc1
The AC40 of the first is 2.7-fold higher: 8.68 µM for the first, 3.22 µM for the second.

Going from `COC(=O)c1ccc(C(=O)Nc2cc(Cl)ccc2Cl)cc1NC(=O)c1ccccc1C` to `Cc1nc(NC(=O)c2cccc(-c3cc4ccccc4oc3=O)c2)ccc1Br`, the AC40 rises from 1.39 µM to 7.19 µM (5.2-fold).

`O[C@H]1C[C@H](c2ccccc2)N(CC2CCCCC2)C[C@@H]1n1cc(C2CC2)nn1` and `Fc1ccccc1/C=N/n1c(C2CCCCC2)n[nH]c1=S` are within 1.5-fold of each other in AC40: 8.64 µM for the first, 11.8 µM for the second.

Going from `Cc1cc(C)nc(NS(=O)(=O)c2ccc(N/C=C/C(=O)c3ccc(Cl)c(Cl)c3)cc2)n1` to `CS(=O)(=O)c1ccc2nc(NC(=O)Nc3ccc(Cl)c(Cl)c3)sc2c1`, the AC40 falls from 4.44 µM to 1.92 µM (2.3-fold).

`CN(C)C=NC(=O)c1ccc(N2CCN(c3ncc(C(F)(F)F)cc3Cl)CC2)cc1` and `NC(c1csc(Nc2ccc(C(F)(F)F)cn2)n1)C1CCCCC1` (stereo not drawn) are within 1.5-fold of each other in AC40: 5.6 µM for the first, 5.02 µM for the second.

`CCOc1cccc(-c2csc(C3COc4ccccc4O3)n2)c1` (stereo not drawn) and `CCCCc1c(-c2cccc(OC)c2)ncn1CCc1ccccc1OC` are within 1.5-fold of each other in AC40: 5.47 µM for the first, 7.6 µM for the second.

First: Cc1ccc(C(=O)Oc2ccc(-c3nccc(-c4ccccn4)n3)cc2)cc1
Second: COc1cccc(-c2sc3ccccc3c2-c2ccc(OCCN(C)C)cc2)c1
The AC40 of the first is 1.9-fold higher: 5.1 µM for the first, 2.75 µM for the second.

Compared with `N#Cc1sc2nc(N3CCCCC3)c3c(c2c1N)CCCC3`, `CN(Cc1c(C(=O)N/N=C/c2ccccc2O)nnn1-c1nonc1N)C1CCCCC1` is 3.6-fold lower in AC40: 21.2 µM for the first, 5.83 µM for the second.

First: CCCCCCc1cc2cc(C(=O)Nc3cccc(OC)c3)c(=O)oc2cc1O
Second: COc1ccc(/C=N/NC(=O)c2ccc(COc3ccccc3Cl)o2)c(OC)c1C
The AC40 of the first is 2.7-fold higher: 13.4 µM for the first, 4.97 µM for the second.

`CCN(Cc1ccccc1)S(=O)(=O)c1ccc(C(=O)N(CCCN(C)C)c2nc3cc(C)cc(C)c3s2)cc1` and `Cc1cc(NC(=O)c2ccccc2F)n(-c2nc3ccccc3[nH]2)n1` are within 1.5-fold of each other in AC40: 3.71 µM for the first, 4.6 µM for the second.

Going from `CN(C)CCCNc1cc(C(C)(C)C)nc2c(-c3ccc(Cl)cc3)cnn12` to `CCCNC(=O)c1nnsc1S(=O)(=O)c1ccc(Cl)cc1`, the AC40 falls from 3.6 µM to 1.15 µM (3.1-fold).

`COc1cccc(-c2ccc(C3[C@@H]4CN(Cc5cccc(F)c5)C[C@H]3N4)cc2)c1` (stereo partly drawn) and `O=C(Nc1ccc(C(F)(F)F)cc1)N1C[C@@H]2N[C@H](C1)C2c1ccc(-c2ccccc2)cc1` (stereo partly drawn) are within 1.5-fold of each other in AC40: 7.22 µM for the first, 8.46 µM for the second.

First: Cc1cc(NC(=O)c2cc(-c3cccc(Cl)c3)on2)no1
Second: CC(C)CC(NC(=O)c1ccc(Cl)cc1)C(=O)OCC(=O)c1ccc2c(c1)NC(=O)CO2 (stereo not drawn)
The AC40 of the first is 10-fold higher: 20.7 µM for the first, 2.04 µM for the second.

First: C/C(=N\NC(=O)c1cccc(Br)c1)c1ccc(Br)cc1
Second: CC(C)Cn1nc(-c2ccccc2)c2ccccc2c1=O
The AC40 of the first is 1.6-fold higher: 13 µM for the first, 8.13 µM for the second.

Going from `CC1(C(=O)NS(=O)(=O)c2ccc(Cl)s2)CCN1C(=O)C1(c2ccccc2)CCCC1` (stereo not drawn) to `CCOC(=O)c1cc2sccc2n1CC(=O)N1c2ccccc2CC1C` (stereo not drawn), the AC40 falls from 9.9 µM to 5.99 µM (1.7-fold).

Going from `CCOc1ccc2ccc(OCC)c(/C=N/n3cnnc3)c2c1` to `OC(c1ccccc1)(c1ccccc1)C1CCN(CCCOc2ccc(-c3ccsc3)cc2)CC1`, the AC40 falls from 34.8 µM to 9.65 µM (3.6-fold).

Going from `C=CCn1c(SCc2ccccc2)nc2c1c(=O)[nH]c(=O)n2C` to `CC(C)CC#Cc1ccc2c(c1)O[C@@H](CN(C)Cc1cccc(F)c1)[C@H](C)CN([C@@H](C)CO)S2(=O)=O`, the AC40 falls from 21.2 µM to 12.7 µM (1.7-fold).

`CC(=O)N(C1CC(C)C(C#N)(C#N)C1(C#N)C#N)N(C)C` (stereo not drawn) was tested, and the AC40 was 0.795 µM.

`O=C(Nc1cccc(Cl)c1)Nc1nc(-c2ccc(Cl)cc2)cs1` was tested, and the AC40 was > 35 µM (inactive).
For `CCCN1Cc2cccc(C(=O)NCc3ccccc3)c2C1=O`, the AC40 was > 35 µM (inactive).
With `O=C(c1ccc(F)cc1)N1C[C@@H]2N[C@H](C1)C2c1ccc(/C=C/c2ccccc2)cc1` (stereo partly drawn) the AC40 was > 11 µM (inactive).
With `Cc1cc(S(=O)(=O)Nc2nc(CN3CCOCC3)nc3sc4c(c23)CCC4)ccc1F` the AC40 was > 35 µM (inactive).
